Experimental data taken from patent publication US12415794B2 (Edgewise Therapeutics, Inc., priority 2018, dated 2025).

What was measured:
[1] = molecular target: skeletal myofibrils (myosin ATPase); assay: Skeletal Myofibril ATPase Assay; assay type: biochemical
Procedure: FIG. 7 depicts the buffer preparation procedures of Buffer A and Buffer B for the skeletal myofibril ATPase assay described in Example 12. Buffers were stored on ice until use.
Example 12: Skeletal Myofibril ATPase Assay
(§1) Overview: Myosin ATPase activity is assessed by using a coupled reaction system, in which ADP generated by the myosin ATPase function is coupled to the disappearance of NADH through the pyruvate kinase/lactate dehydrogenase (PK-LDH) system. ATPase activity produces ADP, which is used as a substrate for PK to produce pyruvate and regenerate ATP. The pyruvate is then used as a substrate by LDH to oxidize NADH to NAD+. The rate of the reaction is monitored through the time-dependent disappearance of NADH using absorbance at 340 nm. Inhibition of ATPase activity by the assayed compounds is indicated by a reduced rate of NADH loss, relative to vehicle-treated controls, over the experimental time window. To assess the selectivity of the assayed compounds for skeletal myofibrils, the compounds are counter-screened in cardiac myofibrils.
Materials: The following stock solutions and reagents were used in the Skeletal Myofibril ATPase Assay:
Stock Solutions of pCa buffer. Combine PIPES, CaCl2, and EGTA solutions with 70 mL of water. Adjust pH to 7.0 and bring final volume to 100 mL.
Skeletal Myofibril ATPase Assay Procedure: BSA, ATP, NADH, PEP, and DTT solutions were thawed at room temperature, then transferred to ice. Pellet-frozen myofibrils were transferred with approximately twice the required volume into a sufficiently large tube and capped. Myofibrils were thawed by rolling in a water bath for approximately 15 min at room temperature and cooled on ice. Buffers A and B were prepared by adjusting volumes as necessary for required number of wells and stored on ice. 0.5 μL of the compounds to be assayed were added into wells. 25 μL of Buffer A was dispensed into the wells, followed by 25 μL of Buffer B. The wells were measured for absorbance at 340 nm, using a kinetic protocol in which the wells are read every 1.5-2 min for 45 min. The slope of the data was approximated by subtracting the minimum absorbance value from the maximum value for each well. This was accomplished either in the SoftMax Pro software or in a spreadsheet program such as Excel. Using GraphPad Prism 8.0, the data was normalized by assigning a value of 100% to the 1% DMSO vehicle wells. Typically, a normalized 0% value was simply assigned to a (Max−Min) value of 0. The normalized data was fit to a Four Parameter Logistic sigmoidal equation, constraining the bottom to be 0 or greater. Compounds of Table 1, 2, and 3 were tested and results of the assay appear in Tables 4a-4c. A=IC50 is less than or equal to 10 μM; B=IC50 is greater than 10 μM and less than 100 μM; C=IC50 is greater than 100 μM.

[2] = molecular target: T1, cardiac myofibrils (myosin ATPase); assay: Cardiac Myofibril ATPase Assay (counter screen); assay type: biochemical; conditions: myofibrils 1.0 mg/mL, KCl omitted
T1 construct: frozen myofibril pellets obtained from cardiac tissue; from tissue
Procedure: as §1
Example 13: Cardiac Myofibril ATPase Assay
Following example 11, the counter screen was done using frozen myofibril pellets obtained from cardiac tissue. The assay was done in the same manner as above, with the following notable exceptions: the final well concentration of myofibrils was 1.0 mg/mL and KCl was omitted from the recipe.
Compounds of Table 1 to 3 were tested, and results of the assays appear in Tables 5a-5c herein. A=IC50 is less than or equal to 10 μM; B=IC50 is greater than 10 μM and less than 100 μM; C=IC50 is greater than 100 μM; and […].

T1 sequence (P12883 whole entry): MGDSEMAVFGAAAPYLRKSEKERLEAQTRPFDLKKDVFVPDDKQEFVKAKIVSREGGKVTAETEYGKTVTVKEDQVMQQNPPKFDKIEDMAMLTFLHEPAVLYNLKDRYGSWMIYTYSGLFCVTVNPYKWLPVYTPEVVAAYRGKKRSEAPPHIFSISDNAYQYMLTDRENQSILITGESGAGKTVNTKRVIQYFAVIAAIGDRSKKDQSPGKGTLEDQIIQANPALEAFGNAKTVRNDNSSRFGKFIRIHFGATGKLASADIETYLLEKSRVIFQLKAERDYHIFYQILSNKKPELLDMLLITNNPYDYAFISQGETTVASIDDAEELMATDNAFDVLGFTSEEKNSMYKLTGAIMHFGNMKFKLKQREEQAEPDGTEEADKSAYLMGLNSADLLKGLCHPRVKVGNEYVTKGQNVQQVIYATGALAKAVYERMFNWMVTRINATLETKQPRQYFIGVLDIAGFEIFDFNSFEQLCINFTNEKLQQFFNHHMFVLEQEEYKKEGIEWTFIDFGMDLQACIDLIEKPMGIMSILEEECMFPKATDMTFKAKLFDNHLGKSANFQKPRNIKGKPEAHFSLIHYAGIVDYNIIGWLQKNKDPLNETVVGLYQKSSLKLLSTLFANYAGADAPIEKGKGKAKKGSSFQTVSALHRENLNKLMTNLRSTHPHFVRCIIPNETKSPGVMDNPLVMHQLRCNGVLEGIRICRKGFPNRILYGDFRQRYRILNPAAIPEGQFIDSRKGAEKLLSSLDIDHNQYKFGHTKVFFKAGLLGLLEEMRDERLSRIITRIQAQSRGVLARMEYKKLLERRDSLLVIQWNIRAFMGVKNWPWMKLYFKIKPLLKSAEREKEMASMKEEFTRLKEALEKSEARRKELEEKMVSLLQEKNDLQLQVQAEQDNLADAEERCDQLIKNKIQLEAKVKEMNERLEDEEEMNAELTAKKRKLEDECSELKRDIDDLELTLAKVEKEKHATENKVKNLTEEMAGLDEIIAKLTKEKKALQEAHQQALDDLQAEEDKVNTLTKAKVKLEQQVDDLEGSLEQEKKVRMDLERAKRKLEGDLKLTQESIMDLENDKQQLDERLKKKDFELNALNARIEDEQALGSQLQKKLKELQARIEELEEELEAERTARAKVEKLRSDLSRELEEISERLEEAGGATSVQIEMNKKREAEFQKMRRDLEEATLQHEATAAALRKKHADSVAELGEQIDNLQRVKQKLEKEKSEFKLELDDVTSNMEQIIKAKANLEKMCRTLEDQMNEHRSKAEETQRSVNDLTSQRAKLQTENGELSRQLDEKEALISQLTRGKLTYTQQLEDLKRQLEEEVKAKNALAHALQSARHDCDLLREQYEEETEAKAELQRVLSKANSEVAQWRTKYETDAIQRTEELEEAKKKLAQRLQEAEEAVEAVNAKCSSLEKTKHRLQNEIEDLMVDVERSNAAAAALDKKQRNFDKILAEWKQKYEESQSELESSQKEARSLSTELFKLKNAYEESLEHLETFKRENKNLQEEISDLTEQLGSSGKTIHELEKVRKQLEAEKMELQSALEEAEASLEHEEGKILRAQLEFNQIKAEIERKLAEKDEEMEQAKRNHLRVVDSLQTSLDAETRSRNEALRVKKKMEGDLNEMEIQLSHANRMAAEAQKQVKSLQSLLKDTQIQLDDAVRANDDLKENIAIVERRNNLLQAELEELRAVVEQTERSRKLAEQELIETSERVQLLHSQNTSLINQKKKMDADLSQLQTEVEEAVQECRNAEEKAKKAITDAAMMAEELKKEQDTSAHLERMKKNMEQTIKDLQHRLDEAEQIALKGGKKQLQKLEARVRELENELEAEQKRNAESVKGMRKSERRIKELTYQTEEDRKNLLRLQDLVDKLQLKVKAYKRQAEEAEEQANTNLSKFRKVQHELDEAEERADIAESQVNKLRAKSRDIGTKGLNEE
T1 sequence (P08590 whole entry partner): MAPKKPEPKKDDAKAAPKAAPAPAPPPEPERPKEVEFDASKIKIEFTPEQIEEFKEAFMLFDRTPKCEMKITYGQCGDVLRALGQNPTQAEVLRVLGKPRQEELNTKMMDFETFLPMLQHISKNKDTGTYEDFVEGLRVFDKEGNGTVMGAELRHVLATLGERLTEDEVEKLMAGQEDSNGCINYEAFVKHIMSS
T1 sequence (P10916 whole entry partner): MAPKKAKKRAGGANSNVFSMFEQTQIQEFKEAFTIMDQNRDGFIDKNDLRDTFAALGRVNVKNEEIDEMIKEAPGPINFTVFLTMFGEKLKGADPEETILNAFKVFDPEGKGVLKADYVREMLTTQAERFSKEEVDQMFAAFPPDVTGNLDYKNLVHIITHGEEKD

## CCNC(=O)Cn1nc(-c2cnc(NC34CC(C3)C4)nc2)ccc1=O [Compound I-59, 2-(3-(2-(bicyclo[1.1.1]pentan-1-ylamino)pyrimidin-5-yl)-6-oxopyridazin-1(6H)-yl)-N-ethylacetamide]
[1]; Table 4A
  IC50: < 10 µM
[2]; Table 5A
  IC50: > 100 µM

## O=C(Cn1nc(-c2ccc(OC(F)F)nc2)ccc1=O)NC12CC(C1)C2 [Compound I-11, N-(bicyclo[1.1.1]pentan-1-yl)-2-(3-(6-(difluoromethoxy)pyridin-3-yl)-6-oxopyridazin-1(6H)-yl)acetamide]
[1]; Table 4A
  IC50: 10 to 100 µM
[2]; Table 5A
  IC50: > 100 µM

## COc1ccc(-c2ccc(=O)n(CC(=O)NCC3CCOCC3)n2)cc1 [IIIa-29, 2-(3-(4-methoxyphenyl)-6-oxopyridazin-1(6H)-yl)-N-((tetrahydro-2H-pyran-4-yl)methyl) acetamide]
[1]; Table 4C
  IC50: > 100 µM
[2]; Table 5C
  IC50: > 100 µM

## Cc1ccc(-c2ccc(=O)n(CC(=O)NC3CCCCCC3)n2)cc1 [IIIc-4, N-cycloheptyl-2-(6-oxo-3-(p-tolyl)pyridazin-1(6H)-yl)acetamide]
[1]; Table 4C
  IC50: 10 to 100 µM
[2]; Table 5C
  IC50: > 100 µM

## CCOc1ccc(-c2ccc(=O)n(CC(=O)NCc3ccccc3Cl)n2)cc1 [IIIa-1, N-(2-chlorobenzyl)-2-(3-(4-ethoxyphenyl)-6-oxopyridazin-1(6H)-yl)acetamide]
[1]; Table 4C
  IC50: < 10 µM
[2]; Table 5C
  IC50: > 100 µM

## COc1ccc(-c2ccc(=O)n(CC(=O)NC(C)C)n2)cn1 [Compound I-16, N-isopropyl-2-(3-(6-methoxypyridin-3-yl)-6-oxopyridazin-1(6H)-yl)acetamide]
[1]; Table 4A
  IC50: 10 to 100 µM
[2]; Table 5A
  IC50: > 100 µM

## COc1ccc(-c2ccc(=O)n(CC(=O)NC3Cc4ccccc4C3)n2)cc1 [IIIb-8, N-(2,3-dihydro-1H-inden-2-yl)-2-(3-(4-methoxyphenyl)-6-oxopyridazin-1(6H)-yl)acetamide]
[1]; Table 4C
  IC50: < 10 µM
[2]; Table 5C
  IC50: > 100 µM

## C[C@@H](NC(=O)Cn1nc(-c2ccc3c(c2)OCCCO3)ccc1=O)c1ccc(F)cc1 [IIIb-26, (R)-2-(3-(3,4-dihydro-2H-benzo[b][1,4]dioxepin-7-yl)-6-oxopyridazin-1(6H)-yl)-N-(1-(4-fluorophenyl)ethyl)acetamide]
[1]; Table 4C
  IC50: 10 to 100 µM
[2]; Table 5C
  IC50: > 100 µM

## CCNC(=O)Cn1nc(-c2ccc(NC(C)=O)cc2)ccc1=O [II-2, 2-(3-(4-acetamidophenyl)-6-oxopyridazin-1(6H)-yl)-N-ethylacetamide]
[1]; Table 4B
  IC50: < 10 µM
[2]; Table 5B
  IC50: > 100 µM

## CCNC(=O)Cn1nc(-c2ccc(NC3CC(F)(F)C3)nc2)ccc1=O [Compound I-74, 2-(3-(6-((3,3-difluorocyclobutyl)amino)pyridin-3-yl)-6-oxopyridazin-1(6H)-yl)-N-ethylacetamide]
[1]; Table 4A
  IC50: 10 to 100 µM
[2]; Table 5A
  IC50: > 100 µM

## CC(C)Oc1ccc(-c2ccc(=O)n(CC(=O)NCc3ccccc3Cl)n2)cc1 [IIIa-2, N-(2-chlorobenzyl)-2-(3-(4-isopropoxyphenyl)-6-oxopyridazin-1(6H)-yl)acetamide]
[1]; Table 4C
  IC50: < 10 µM
[2]; Table 5C
  IC50: > 100 µM

## COc1ccc(-c2ccc(=O)n(CC(=O)NCc3ccco3)n2)cc1 [IIIb-53, N-(furan-2-ylmethyl)-2-(3-(4-methoxyphenyl)-6-oxopyridazin-1(6H)-yl)acetamide]
[1]; Table 4C
  IC50: > 100 µM
[2]; Table 5C
  IC50: > 100 µM

## CCNC(=O)Cn1nc(-c2ccc(OCCCN(C)C)nc2)ccc1=O [Compound I-28, 2-(3-(6-(3-(dimethylamino)propoxy)pyridin-3-yl)-6-oxopyridazin-1(6H)-yl)-N-ethylacetamide]
[1]; Table 4A
  IC50: > 100 µM
[2]; Table 5A
  IC50: > 100 µM

## CCNC(=O)Cn1nc(-c2ccc(C3CC3)nc2)ccc1=O [Compound I-12, 2-(3-(6-cyclopropylpyridin-3-yl)-6-oxopyridazin-1(6H)-yl)-N-ethylacetamide]
[1]; Table 4A
  IC50: 10 to 100 µM
[2]; Table 5A
  IC50: > 100 µM

## CCNC(=O)Cn1nc(-c2ccc(N3CC4(C3)CS(=O)(=O)C4)nc2)ccc1=O [Compound I-32, 2-(3-(6-(2,2-dioxido-2-thia-6-azaspiro[3.3]heptan-6-yl)pyridin-3-yl)-6-oxopyridazin-1(6H)-yl)-N-ethylacetamide]
[1]; Table 4A
  IC50: > 100 µM
[2]; Table 5A
  IC50: > 100 µM

## COc1ccc(-c2ccc(=O)n(CC(=O)NCc3ccccc3Cl)n2)cc1F [IIIa-24, N-(2-chlorobenzyl)-2-(3-(3-fluoro-4-methoxyphenyl)-6-oxopyridazin-1(6H)-yl)acetamide]
[1]; Table 4C
  IC50: 10 to 100 µM
[2]; Table 5C
  IC50: > 100 µM

## COc1ccc(-c2ccc(=O)n(CC(=O)NCc3ccc(Cl)cc3)n2)cc1 [IIIb-31, N-(4-chlorobenzyl)-2-(3-(4-methoxyphenyl)-6-oxopyridazin-1(6H)-yl)acetamide]
[1]; Table 4C
  IC50: 10 to 100 µM
[2]; Table 5C
  IC50: > 100 µM

## CCNC(=O)Cn1nc(-c2ccc(N3CC(OC(F)F)C3)nc2)ccc1=O [Compound I-55, 2-(3-(6-(3-(difluoromethoxy)azetidin-1-yl)pyridin-3-yl)-6-oxopyridazin-1(6H)-yl)-N-ethylacetamide]
[1]; Table 4A
  IC50: 10 to 100 µM
[2]; Table 5A
  IC50: > 100 µM

## CCOc1ccc(-c2ccc(=O)n(CC(=O)NC(C)C)n2)cc1 [IIIa-6, 2-(3-(4-ethoxyphenyl)-6-oxopyridazin-1(6H)-yl)-N-isopropylacetamide]
[1]; Table 4C
  IC50: < 10 µM
[2]; Table 5C
  IC50: > 100 µM

## Cn1ccc2c(NC(=O)Cn3nc(-c4ccc(Cl)cc4)ccc3=O)cccc21 [IIIc-20, 2-(3-(4-chlorophenyl)-6-oxopyridazin-1(6H)-yl)-N-(1-methyl-1H-indol-4-yl)acetamide]
[1]; Table 4C
  IC50: < 10 µM
[2]; Table 5C
  IC50: 10 to 100 µM

## O=C(Cn1nc(-c2ccc(OC(F)F)nc2)ccc1=O)NCc1ccccc1Cl [Compound I-69, N-(2-chlorobenzyl)-2-(3-(6-(difluoromethoxy)pyridin-3-yl)-6-oxopyridazin-1(6H)-yl)acetamide]
[1]; Table 4A
  IC50: < 10 µM
[2]; Table 5A
  IC50: > 100 µM

## COc1ccc(-c2ccc(=O)n(CC(=O)NCc3cc(F)ccc3Cl)n2)cc1 [IIIa-7, N-(2-chloro-5-fluorobenzyl)-2-(3-(4-methoxyphenyl)-6-oxopyridazin-1(6H)-yl)acetamide]
[1]; Table 4C
  IC50: < 10 µM
[2]; Table 5C
  IC50: > 100 µM

## CC(C)[C@@](C)(C#N)NC(=O)Cn1nc(-c2ccc(OC(F)F)nc2)ccc1=O (stereo in doubt) [Compound I-34, N-(2-cyano-3-methylbutan-2-yl)-2-(3-(6-(difluoromethoxy)pyridin-3-yl)-6-oxopyridazin-1(6H)-yl)acetamide]
[1]; Table 4A
  IC50: 10 to 100 µM
[2]; Table 5A
  IC50: > 100 µM

## CCC(C)(C)NC(=O)Cn1nc(-c2ccc(OC(F)F)nc2)ccc1=O [Compound I-20, 2-(3-(6-(difluoromethoxy)pyridin-3-yl)-6-oxopyridazin-1(6H)-yl)-N-(tert-pentyl)acetamide]
[1]; Table 4A
  IC50: 10 to 100 µM
[2]; Table 5A
  IC50: > 100 µM

## COc1ccc(Cl)cc1NC(=O)Cn1nc(-c2ccccc2)ccc1=O [IIIc-62, N-(5-chloro-2-methoxyphenyl)-2-(6-oxo-3-phenylpyridazin-1(6H)-yl)acetamide]
[1]; Table 4C
  IC50: > 100 µM
[2]; Table 5C
  IC50: > 100 µM

## CCNC(=O)Cn1nc(-c2cnc(Nc3ccc(Cl)cc3)nc2)ccc1=O [Compound I-1, 2-(3-(2-((4-chlorophenyl)amino)pyrimidin-5-yl)-6-oxopyridazin-1(6H)-yl)-N-ethylacetamide]
[1]; Table 4A
  IC50: < 10 µM
[2]; Table 5A
  IC50: > 100 µM

## COc1ccc(-c2ccc(=O)n(CC(=O)NCc3ccc(Cl)cc3Cl)n2)cc1 [IIIa-12, N-(2,4-dichlorobenzyl)-2-(3-(4-methoxyphenyl)-6-oxopyridazin-1(6H)-yl)acetamide]
[1]; Table 4C
  IC50: < 10 µM
[2]; Table 5C
  IC50: > 100 µM

## CCNC(=O)Cn1nc(-c2ccc(OCC3COC3)nc2)ccc1=O [Compound I-22, N-ethyl-2-(3-(6-(oxetan-3-ylmethoxy)pyridin-3-yl)-6-oxopyridazin-1(6H)-yl)acetamide]
[1]; Table 4A
  IC50: 10 to 100 µM
[2]; Table 5A
  IC50: > 100 µM

## COc1ccc(-c2ccc(=O)n(CC(=O)Nc3ccc(Cl)cc3Cl)n2)c(F)c1 [IIIb-35, N-(2,4-dichlorophenyl)-2-(3-(2-fluoro-4-methoxyphenyl)-6-oxopyridazin-1(6H)-yl)acetamide]
[1]; Table 4C
  IC50: 10 to 100 µM
[2]; Table 5C
  IC50: > 100 µM
